Tests used:
Influenza A virus [1] = test: Antiviral activity against Influenza A virus (A/PR 8/34 (H1N1)) infected in MDCK cells assessed as reduction in virus-induced cytopathic effect measured after 72 hrs by MTS assay; type: functional, organism-based; settings: A/Puerto Rico/8/1934(H1N1)
Influenza A virus [2] = test: Antiviral activity against Influenza A virus (A/PR 8/34 (H1N1)) infected in MDCK cells assessed as reduction in virus-induced cytopathic effect measured after 72 hrs by microscopic analysis; type: functional, organism-based; settings: A/Puerto Rico/8/1934(H1N1)
[3] = Cytotoxicity against MDCK cells assessed as reduction in cell viability measured after 72 hrs by MTS assay; type: cell-based, Canis lupus familiaris; settings: dog
[4] = Cytotoxicity against MDCK cells assessed as change in cell morphology measured after 72 hrs by microscopic analysis; type: cell-based, Canis lupus familiaris; settings: dog
[5] = Selectivity index, ratio of CC50 for MDCK cells to EC50 for antiviral activity against Influenza A virus (A/Puerto Rico/8/1934(H1N1)) infected in MDCK cells; type: toxicity, cell-based; settings: dog, read-out: Ratio CC50/EC50

## COC(=O)C[C@H](NC(=O)OC(C)(C)C)C(=O)N(Cc1ccc(F)cc1)C1(C(=O)NCc2ccccc2)CCN(CCc2ccccc2)CC1
Influenza A virus [1]
  EC50: > 100 µM
Influenza A virus [2]
  EC50: > 100 µM
[3]
  CC50 at 72 h: 41 µM
[4]
  MCC at 72 h: 100 µM

## COC(=O)C[C@H](NC(=O)OC(C)(C)C)C(=O)NC1(C(=O)NCc2ccccc2)CCN(Cc2ccccc2)CC1
Influenza A virus [1]
  EC50: > 100 µM
Influenza A virus [2]
  EC50: > 100 µM
[3]
  CC50 at 72 h: 85 µM
[4]
  MCC at 72 h: 100 µM

## COC(=O)C[C@H](NC(=O)OC(C)(C)C)C(=O)N(Cc1ccc([N+](=O)[O-])cc1)C1(C(=O)NCc2ccccc2)CCN(Cc2ccccc2)CC1
Influenza A virus [1]
  EC50: > 100 µM
Influenza A virus [2]
  EC50: 10 µM
[3]
  CC50 at 72 h: > 100 µM
[4]
  MCC at 72 h: 20 µM

## COC(=O)CC[C@H](NC(=O)OC(C)(C)C)C(=O)N(Cc1ccc(F)cc1)C1(C(=O)NCc2ccccc2)CCN(Cc2ccccc2)CC1
Influenza A virus [1]
  EC50: 10 µM
Influenza A virus [2]
  EC50: 9.8 µM
[5]
  selectivity ratio: ≤ 10
[3]
  CC50 at 72 h: > 100 µM
[4]
  MCC at 72 h: > 100 µM

## COC(=O)C[C@H](NC(=O)OC(C)(C)C)C(=O)N(Cc1cccc(F)c1)C1(C(=O)NCc2ccccc2)CCN(Cc2ccccc2)CC1
Influenza A virus [1]
  EC50: 5.2 µM
Influenza A virus [2]
  EC50: 4.1 µM
[5]
  selectivity ratio: ≤ 10
[3]
  CC50 at 72 h: 75 µM
[4]
  MCC at 72 h: 47 µM

## COC(=O)C[C@H](NC(=O)OC(C)(C)C)C(=O)N(Cc1ccc(F)cc1)C1(C(=O)NCc2ccccc2)CCN(C2CCCCC2)CC1
Influenza A virus [1]
  EC50: > 100 µM
Influenza A virus [2]
  EC50: > 100 µM
[3]
  CC50 at 72 h: 42 µM
[4]
  MCC at 72 h: 73 µM

## CC(C)(C)OC(=O)N[C@@H](CC(N)=O)C(=O)N(Cc1ccccc1)C1(C(=O)NCc2ccccc2)CCN(Cc2ccccc2)CC1
Influenza A virus [1]
  EC50: 6.7 µM
Influenza A virus [2]
  EC50: 6.3 µM
[5]
  selectivity ratio: ≤ 10
[3]
  CC50 at 72 h: > 100 µM
[4]
  MCC at 72 h: > 100 µM

## COC(=O)C[C@H](N)C(=O)N(Cc1ccc(F)cc1)C1(C(=O)NCc2ccccc2)CCN(Cc2ccccc2)CC1
Influenza A virus [1]
  EC50: < 0.8 µM
Influenza A virus [2]
  EC50: < 0.8 µM
[3]
  CC50 at 72 h: 54 µM
[4]
  MCC at 72 h: 60 µM

## C[C@H](NC(=O)OC(C)(C)C)C(=O)N(Cc1ccc(F)cc1)C1(C(=O)NCc2ccccc2)CCN(Cc2ccccc2)CC1
Influenza A virus [1]
  EC50: 11 µM
Influenza A virus [2]
  EC50: 10 µM
[3]
  CC50 at 72 h: > 100 µM
[4]
  MCC at 72 h: > 100 µM

## COC(=O)C[C@H](NC(=O)OC(C)(C)C)C(=O)N(Cc1ccccc1)C1(C(=O)NCc2ccccc2)CCN(Cc2ccccc2)CC1
Influenza A virus [1]
  EC50: 10 µM
Influenza A virus [2]
  EC50: 9.3 µM
[5]
  selectivity ratio: ≤ 10
[3]
  CC50 at 72 h: > 100 µM
[4]
  MCC at 72 h: > 100 µM

## COC(=O)C[C@H](NC(=O)OC(C)(C)C)C(=O)N(Cc1ccc(C)cc1)C1(C(=O)NCc2ccccc2)CCN(Cc2ccccc2)CC1
Influenza A virus [1]
  EC50: > 100 µM
Influenza A virus [2]
  EC50: 6.9 µM
[3]
  CC50 at 72 h: > 100 µM
[4]
  MCC at 72 h: > 100 µM

## COC(=O)C[C@H](NC(=O)OCc1ccccc1)C(=O)N(Cc1ccc(F)cc1)C1(C(=O)NCc2ccccc2)CCN(Cc2ccccc2)CC1
Influenza A virus [1]
  EC50: > 100 µM
Influenza A virus [2]
  EC50: 2.7 µM
[3]
  CC50 at 72 h: 1.9 µM
[4]
  MCC at 72 h: 2.6 µM

## COC(=O)CCC(=O)N(Cc1ccc(F)cc1)C1(C(=O)NCc2ccccc2)CCN(Cc2ccccc2)CC1
Influenza A virus [1]
  EC50: 24 µM
Influenza A virus [2]
  EC50: 25 µM
[3]
  CC50 at 72 h: 40 µM
[4]
  MCC at 72 h: 16 µM

## COC(=O)C[C@H](NC(=O)OC(C)(C)C)C(=O)N(Cc1ccc(C(F)(F)F)cc1)C1(C(=O)NCc2ccccc2)CCN(Cc2ccccc2)CC1
Influenza A virus [1]
  EC50: > 100 µM
Influenza A virus [2]
  EC50: > 100 µM
[3]
  CC50 at 72 h: 54 µM
[4]
  MCC at 72 h: 84 µM

## COC(=O)C[C@H](NC(=O)OC(C)(C)C)C(=O)N(C1CC1)C1(C(=O)NCc2ccccc2)CCN(Cc2ccccc2)CC1
Influenza A virus [1]
  EC50: > 100 µM
Influenza A virus [2]
  EC50: > 100 µM
[3]
  CC50 at 72 h: 56 µM
[4]
  MCC at 72 h: 84 µM

## COC(=O)C[C@H](NC(=O)OC(C)(C)C)C(=O)N(Cc1ccc(F)c(F)c1)C1(C(=O)NCc2ccccc2)CCN(Cc2ccccc2)CC1
Influenza A virus [1]
  EC50: > 100 µM
Influenza A virus [2]
  EC50: > 100 µM
[3]
  CC50 at 72 h: 52 µM
[4]
  MCC at 72 h: 20 µM

## COC(=O)C[C@H](NC(=O)OC(C)(C)C)C(=O)N(Cc1ccc(F)cc1)C1(C(=O)NCc2ccccc2)CCNCC1
Influenza A virus [1]
  EC50: > 89 µM
Influenza A virus [2]
  EC50: > 73 µM
[3]
  CC50 at 72 h: 48 µM
[4]
  MCC at 72 h: 100 µM

## COC(=O)C[C@H](NC(=O)OC(C)(C)C)C(=O)N(Cc1ccc(F)cc1)C1(C(=O)NC(C)(C)C)CCN(Cc2ccccc2)CC1
Influenza A virus [1]
  EC50: > 100 µM
Influenza A virus [2]
  EC50: > 100 µM
[3]
  CC50 at 72 h: 50 µM
[4]
  MCC at 72 h: 80 µM
